The text below walks through data of patent US20250114369A1, “COMPOUNDS AND METHODS FOR TREATMENT OF VIRAL INFECTIONS” (Gilead Sciences, Inc., priority 2023, published 2025).

One may read the EC50 as the concentration needed to bring the measured effect to its halfway point. As a reminder, the CC50 is the concentration at which the toxic effect on the cells reaches its halfway point. Read a high CC50 as better tolerance by the cells. What is called half-life is the time needed for the level to fall by half in the phase considered. Lower therefore signals rapid decline.

Data set [1] relates to Respiratory syncytial virus recombinant with luciferase (RSV-Luc5). The experiment in a line: microbe, parasite or virus in culture. As to conditions: human respiratory syncytial virus, NHBE, 72 h, read-out: RSV NHBE EC50 (nM). It counts as cell-based.
Data set [2] deals with SARS Coronavirus 2 recombinant with NanoLuc (SARS-CoV2-NLuc). In words: organism not typed. Type of data set: cell-based. As to conditions: 48 h.
Data set [3] is described as follows: in vitro. It counts as cell-based. Particulars: human. On the procedure: Cytotoxicity of the compounds was determined in uninfected cells using the cell viability reagent in a similar fashion as described before for other cell types (Cihlar et al., Antimicrob Agents Chemother. 2008, 52(2):655-65). HEp-2 (1.5×10^3 cells/well) and MT-4 (2×10^3 cells/well) cells were plated in 384-well plates and incubated with the appropriate medium containing 3-fold serially diluted compound ranging from 15 nM to 100,000 nM. Cells were cultured for 4-5 days at 37° C. Following the incubation, the cells were allowed to equilibrate to 25° C., and cell viability was determined by adding Cell-Titer Glo viability reagent. The mixture was incubated for 10 min, and the luminescence signal was quantified using an Envision plate reader. Untreated cell and cells treated at 2 μM puromycin (Sigma, St. Louis, MO) serve as […] cell viability control, respectively. The percent of cell viability was calculated for each tested compound concentration relative to the 0% and 100% controls and the CC50 value was determined by non-linear regression as a compound concentration reducing the cell viability by […].

The nature of data set [4]: in vitro. As to conditions: human, s9, pH 7.4. Type of data set: in vitro ADME. On the procedure:
Duplicate aliquots of test compound or positive control substrate (GS-7340) were added to PMSF-free Intestinal S9 fractions diluted with 100 mM phosphate buffered saline, pH 7.4, to obtain a protein concentration of 1.0 mg/mL. The S9 metabolic reactions were initiated by the addition of the substrates to the S9 reaction mixture to a final concentration of 2 μM. At 0, 10, 20, 30, 60 and 120 min, 25 μL aliquots of the reaction mixture were transferred to plates containing 225 μl of IS/Q solution. After quenching, the plates were centrifuged at 3000×g for 30 minutes, and 150 μL aliquots of each supernatant were diluted with 150 μL water. Aliquots (10 μL) of the diluted supernatant were analyzed on a Thermo Q-Exactive mass spectrometer as described below. Quantification of test compounds and controls was performed by analyte/internal standard peak area ratio (PAR) values measured on a Thermo Q-Exactive mass spectrometer coupled to a Dionex UltiMate 3000 HPLC with a Leap Technologies HTC PAL autosampler. The column used was a Thermo Hypersil GOLD (1.9 μm particle size, 2.1×50 mm). Mobile phase A consisted of […] formic acid in water. Mobile phase B consisted of 0.1% (v/v) formic acid in acetonitrile. Elution of analytes was achieved by a series of linear gradients of acetonitrile in water containing 0.1% (v/v) formic acid. The mass spectrometer was calibrated on a weekly basis and mass tolerance of 5 ppm was used.

The format of data set [5] is in vitro ADME. As to conditions: 2 μM. On the procedure: Duplicate aliquots of plasma were warmed to 37° C. and the metabolic reactions initiated by the addition of test compound (6 μL of 0.1 mM DMSO stock) or plasma stability standard (GS-7340) to obtain a final substrate concentration of 2 μM. At 0.05, 0.5, 1, 2, 3 and 4 hr, 25 μL aliquots of the reaction mixture were transferred to plates containing 225 μl of IS/Q quenching solution. After quenching, the plates were centrifuged at 3000×g for 30 minutes, and 150 μL supernatant was diluted with 150 μL water. Aliquots (10 μL) of the diluted supernatant were analyzed on a Thermo Q-Exactive mass spectrometer as described below. Quantification of test compounds and controls was performed by analyte/internal standard peak area ratio (PAR) values measured on a Thermo Q-Exactive mass spectrometer coupled to a Dionex UltiMate 3000 HPLC with a Leap Technologies HTC PAL autosampler. The column used was a Thermo Hypersil GOLD (1.9 μm particle size, 2.1×50 mm). Mobile phase A consisted of […] formic acid in water. Mobile phase B consisted of 0.1% (v/v) formic acid in acetonitrile. Elution of analytes was achieved by a series of linear gradients of acetonitrile in water containing 0.1% (v/v) formic acid. The mass spectrometer was calibrated on a weekly basis and mass tolerance of 5 ppm was used.

Data set [6] has as its system Caco-2 cells (clone C2BBel). The experiment in a line: CACO-2 permeability. Type of data set: in vitro ADME. As to conditions: donor pH 6.5, receiver pH 7.4; for DM Caco2 A to B: forward (A to B); for DM Caco2 B to A: reverse (B to A). How it is done:
Pre-plated Caco-2 cells (clone C2BBel) were obtained from Sigma-Aldrich, Inc. (Atlanta, GA). Cell monolayers were grown to confluence on collagen-coated, microporous, polycarbonate membranes in 24-well transwell plates for 21 days. The permeability assay buffer in donor wells was Hanks' balanced salt solution (HBSS) containing 10 mM HEPES and 15 mM glucose at a pH of 6.5 containing 200 μM BNPP. The receiver wells used HBSS buffer containing 10 mM HEPES and 15 mM glucose at a pH of 7.4 and supplemented with 1% BSA. After an initial equilibration with transport buffer, TEER values were read to test membrane integrity. The experiment was started by the addition of buffers containing test compounds, 200 μl and 1000 μl in the apical and basolateral chamber, respectively. At 0- and 2-hour post dose, 10 μL was sampled from donor compartment and was immediately diluted in 190 μL of 20% methanol. At 1 and 2 hours post dose, 100 μl of solution was taken from the receiver compartments and was immediately diluted in 100 μl of 20% methanol. Removed buffer was replaced with fresh buffer and a correction was applied to all calculations for the removed material. Each compound was tested in 2 separate replicate wells for each condition. All samples were then extracted with 400 μl 100% acetonitrile with internal standard to precipitate protein. Cells were dosed on the apical or basolateral side to determine forward (A to B) and reverse (B to A) permeability. To test for non-specific binding and compound instability, the total amount of drug was quantitated at the end of the experiment and compared to the material present in the original dosing solution as a percent recovery. Formation of the parent compound (GS-441524; Reference Compound A) was monitored in assay wells dosed with the prodrug. Samples were analyzed by LC-MS/MS.
(Caco-2 cells form a polarised layer with tight junctions and transporters.)
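Wherever CC50 is given: uninfected MT-4 cells over 4-5 days by CellTiter-Glo.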

In the case of `N#C[C@@]1(c2ccc3c(N)ncnn23)O[C@H](COC(=O)N2C(=O)OC[C@@H]2Cc2ccccc2)[C@@H](O)[C@H]1O` [Compound 4, [(2R,3S,4R,5R)-5-(4-aminopyrrolo[2,1-f][1,2,4]triazin-7-yl)-5-cyano-3,4-dihydroxy-tetrahydrofuran-2-yl]methyl (4S)-4-benzyl-2-oxo-oxazolidine-3-carboxylate], the concentration for a half-maximal effect (EC50) in data set [1] was above 50000 nM; in data set [2] it was above 50 µM. Also, the CC50 in data set [3] was above 50 µM. The half-life at 2 μM in data set [4] is at least 789 min. The “STA Human Plasma 37” value in data set [5] was 253.23. In addition, the “DM Caco2 A to B” value in data set [6] was 0.12. For the same molecule, in data set [6], the “DM Caco2 B to A” value is 0.94.

In the case of `CC(C)[C@H](NC(=O)OC[C@H]1O[C@@](C#N)(c2ccc3c(N)ncnn23)[C@H](O)[C@@H]1O)C(=O)O` [Compound 6, ((((2R,3S,4R,5R)-5-(4-aminopyrrolo[2,1-f][1,2,4]triazin-7-yl)-5-cyano-3,4-dihydroxytetrahydrofuran-2-yl)methoxy)carbonyl)-L-valine], the EC50 in data set [1] is above 50000 nM. For the same molecule, the EC50 in data set [2] was above 50 µM. Besides, in data set [3], the CC50 is above 50 µM. The molecule also had a half-life at 2 μM in data set [4] of at least 792 min. Besides, in data set [5], the “STA Human Plasma 37” value came out at 1584. In data set [6], the “DM Caco2 A to B” value was 0.05 and the “DM Caco2 B to A” value is 0.07.

As to `N#C[C@@]1(c2ccc3c(N)ncnn23)O[C@H](COC(=O)N2CCS(=O)(=O)CC2)[C@@H](O)[C@H]1O` [Compound 11, [(2R,3S,4R,5R)-5-(4-aminopyrrolo[2,1-f][1,2,4]triazin-7-yl)-5-cyano-3,4-dihydroxy-tetrahydrofuran-2-yl]methyl 1,1-dioxo-1,4-thiazinane-4-carboxylate], the EC50 in data set [1] was above 50000 nM. Further, the 50% effective concentration (EC50) in data set [2] is above 50 µM. This molecule also came in with a CC50 in data set [3] above 50 µM. In data set [4], this molecule registered a half-life at 2 μM of 779 min. Also, the “STA Human Plasma 37” value in data set [5] is on record as 1584. For the same molecule, in data set [6], the “DM Caco2 A to B” value came out at 0.08 and the “DM Caco2 B to A” value amounted to 0.11.

As for `N#C[C@@]1(c2ccc3c(N)ncnn23)O[C@H](COC(=O)N2CCCO2)[C@@H](O)[C@H]1O` [Compound 12, [(2R,3S,4R,5R)-5-(4-aminopyrrolo[2,1-f][1,2,4]triazin-7-yl)-5-cyano-3,4-dihydroxy-tetrahydrofuran-2-yl]methyl isoxazolidine-2-carboxylate], the EC50 was 35300 nM in data set [1] and above 50 µM in data set [2]. Besides, the CC50 in data set [3] is above 50 µM. The same molecule yielded a half-life at 2 μM in data set [4] of 85 min. Also, the “STA Human Plasma 37” value in data set [5] is 938.47. Moreover, the “DM Caco2 A to B” value in data set [6] came out at 0.08. For the same molecule, the “DM Caco2 B to A” value in data set [6] is 0.36.

Turning to `CCCSC(=O)OC[C@H]1O[C@@](C#N)(c2ccc3c(N)ncnn23)[C@H](O)[C@@H]1O` [Compound 14, [(2R,3S,4R,5R)-5-(4-aminopyrrolo[2,1-f][1,2,4]triazin-7-yl)-5-cyano-3,4-dihydroxy-tetrahydrofuran-2-yl]methyl propylsulfanylformate], the values for the EC50 in data set [1] and in data set [2] were 2620 nM and 11.7 µM, respectively. The CC50 in data set [3] is above 50 µM. This molecule also had a half-life at 2 μM in data set [4] of 5.12 min. The “STA Human Plasma 37” value in data set [5] came out at 495.99. Moreover, in data set [6], the “DM Caco2 A to B” value was 2.06. The “DM Caco2 B to A” value in data set [6] is 9.1.

Consider `CCSC(=O)OC[C@H]1O[C@@](C#N)(c2ccc3c(N)ncnn23)[C@H](O)[C@@H]1O` [Compound 15, [(2R,3S,4R,5R)-5-(4-aminopyrrolo[2,1-f][1,2,4]triazin-7-yl)-5-cyano-3,4-dihydroxy-tetrahydrofuran-2-yl]methyl ethylsulfanylformate], for which the 50% effective concentration (EC50) in data set [1] is 5650 nM. Further, in data set [2], the EC50 was 19.7 µM. For the same molecule, in data set [3], the CC50 is above 50 µM. In addition, the half-life at 2 μM in data set [4] worked out at 16.4 min. Also, the “STA Human Plasma 37” value in data set [5] was 451.78. In data set [6], the “DM Caco2 A to B” value is given as 1.51 and the “DM Caco2 B to A” value is reported as 7.08.

Regarding `CC(C)(C)SC(=O)OC[C@H]1O[C@@](C#N)(c2ccc3c(N)ncnn23)[C@H](O)[C@@H]1O` [Compound 17, [(2R,3S,4R,5R)-5-(4-aminopyrrolo[2,1-f][1,2,4]triazin-7-yl)-5-cyano-3,4-dihydroxy-tetrahydrofuran-2-yl]methyl tert-butylsulfanylformate], the EC50 in data set [1] worked out at 8110 nM. In addition, the EC50 in data set [2] is at least 50 µM. This molecule registered a CC50 in data set [3] of 49.8 µM. The half-life at 2 μM in data set [4] was determined as 44.5 min. For the same molecule, in data set [5], the “STA Human Plasma 37” value was determined as 1343.5. In data set [6], the “DM Caco2 A to B” value was found to be 3.05 and the “DM Caco2 B to A” value was found to be 15.63.

For the molecule `CC(=O)O[C@H]1[C@@H](OC(C)=O)[C@](C#N)(c2ccc3c(N)ncnn23)O[C@@H]1COC(=O)NC(C)C` [Compound 18, [(2R,3R,4R,5R)-4-acetoxy-5-(4-aminopyrrolo[2,1-f][1,2,4]triazin-7-yl)-5-cyano-2-(isopropylcarbamoyloxymethyl)tetrahydrofuran-3-yl]acetate], the EC50 in data set [1] is above 50000 nM. Besides, in data set [2], the EC50 is above 50 µM. The CC50 in data set [3] was above 50 µM. The same molecule came in with a half-life at 2 μM in data set [4] of 0.581 min. In addition, the “STA Human Plasma 37” value in data set [5] stood at 16.014. For the same molecule, in data set [6], the “DM Caco2 A to B” value is 0.8 and the “DM Caco2 B to A” value is listed as 6.91.
